Molecular target: T1, Z. mobilis PDC (Zymomonas mobilis subsp. mobilis, UniProt P06672)
T1 construct: made in house
T1 sequence (P06672 1-568): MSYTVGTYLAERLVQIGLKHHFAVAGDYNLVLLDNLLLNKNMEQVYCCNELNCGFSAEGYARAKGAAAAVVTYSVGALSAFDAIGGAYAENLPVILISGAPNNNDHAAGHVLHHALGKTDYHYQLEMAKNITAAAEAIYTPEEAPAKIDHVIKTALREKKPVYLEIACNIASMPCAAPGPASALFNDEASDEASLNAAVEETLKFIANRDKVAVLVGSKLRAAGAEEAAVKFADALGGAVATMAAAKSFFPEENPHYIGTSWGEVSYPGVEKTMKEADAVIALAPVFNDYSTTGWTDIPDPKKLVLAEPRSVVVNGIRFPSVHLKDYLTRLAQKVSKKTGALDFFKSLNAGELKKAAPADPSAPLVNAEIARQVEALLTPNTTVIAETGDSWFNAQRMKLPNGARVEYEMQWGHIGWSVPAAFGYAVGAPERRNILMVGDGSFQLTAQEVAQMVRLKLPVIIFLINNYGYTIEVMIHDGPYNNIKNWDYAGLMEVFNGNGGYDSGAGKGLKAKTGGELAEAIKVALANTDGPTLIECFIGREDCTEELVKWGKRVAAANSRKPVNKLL
Assay: Z. mobilis PDC inhibitory activity assay (NADH consumption)
Type: biochemical
Details: for Ki: Z. mobilis PDC, determined according to the KM for ThDP; for IC50: bacterial PDC (Zymomonas mobilis), [ThDP] 10 μM

SMILES	Ki [µM]	IC50 [µM]
Cc1ncc(Cn2cc(CCCC(=O)NO)nn2)c(N)n1 [Compound 24b]	0.68	20 ± 2
Cc1ncc(Cn2cc(CCCCC(=O)NO)nn2)c(N)n1 [Compound 24c]	0.89	25 ± 2

Reference: publication PMC10184313, “Inhibition of Thiamine Diphosphate-Dependent Enzymes by Triazole-Based Thiamine Analogues” (ACS Medicinal Chemistry Letters, 2023)
